Article PMC7181660, “A novel specific PERK activator reduces toxicity and extends survival in Huntington's disease models” (Scientific Reports, 2020)

Columns and labels:
Assay in all cases: biochemical
Format in all cases: biochemical
panel of 391 kinases [1] = molecular target: panel of 391 kinases (Homo sapiens, UniProt O00238); conditions: ALK6/BMPR1B, MK-28 1 µM, ATP 1 µM
panel of 391 kinases [2] = molecular target: panel of 391 kinases (Homo sapiens, UniProt O75582); conditions: MSK1/RPS6KA5, MK-28 1 µM, ATP 1 µM
panel of 391 kinases [3] = molecular target: T1, panel of 391 kinases (Homo sapiens, UniProt P10398); conditions: ARAF, MK-28 1 µM, ATP 1 µM
T1 sequence (P10398 1-606): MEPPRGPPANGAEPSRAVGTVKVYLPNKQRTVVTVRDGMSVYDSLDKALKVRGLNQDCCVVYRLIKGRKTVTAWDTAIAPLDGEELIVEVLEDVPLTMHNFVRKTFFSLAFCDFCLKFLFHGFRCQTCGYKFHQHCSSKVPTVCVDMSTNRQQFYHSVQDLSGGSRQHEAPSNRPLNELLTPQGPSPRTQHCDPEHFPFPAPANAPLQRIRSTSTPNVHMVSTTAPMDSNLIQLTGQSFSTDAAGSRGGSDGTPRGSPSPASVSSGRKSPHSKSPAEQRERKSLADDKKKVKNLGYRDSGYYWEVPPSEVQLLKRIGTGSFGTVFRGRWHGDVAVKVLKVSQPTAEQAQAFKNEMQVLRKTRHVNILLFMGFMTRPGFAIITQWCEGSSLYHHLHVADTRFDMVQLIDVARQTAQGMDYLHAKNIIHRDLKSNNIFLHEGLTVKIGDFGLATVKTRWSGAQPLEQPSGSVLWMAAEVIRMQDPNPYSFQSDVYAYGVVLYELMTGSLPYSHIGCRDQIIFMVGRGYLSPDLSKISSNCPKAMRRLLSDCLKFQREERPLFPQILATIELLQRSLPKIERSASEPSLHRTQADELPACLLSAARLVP

panel of 391 kinases [4] = molecular target: panel of 391 kinases (Homo sapiens, UniProt P12931); conditions: c-Src, MK-28 1 µM, ATP 1 µM
panel of 391 kinases [5] = molecular target: panel of 391 kinases (Homo sapiens, UniProt P23458); conditions: JAK1, MK-28 1 µM, ATP 1 µM
panel of 391 kinases [6] = molecular target: panel of 391 kinases (Homo sapiens, UniProt P30291); conditions: WEE1, MK-28 1 µM, ATP 1 µM
panel of 391 kinases [7] = molecular target: panel of 391 kinases (Homo sapiens, UniProt P31751); conditions: AKT2, MK-28 1 µM, ATP 1 µM
panel of 391 kinases [8] = molecular target: panel of 391 kinases (Homo sapiens, UniProt P42681); conditions: TXK, MK-28 1 µM, ATP 1 µM
panel of 391 kinases [9] = molecular target: panel of 391 kinases (Homo sapiens, UniProt P48729); conditions: CK1a1, MK-28 1 µM, ATP 1 µM
panel of 391 kinases [10] = molecular target: panel of 391 kinases (Homo sapiens, UniProt P49761); conditions: CLK3, MK-28 1 µM, ATP 1 µM
panel of 391 kinases [11] = molecular target: panel of 391 kinases (Homo sapiens, UniProt Q00537); conditions: CDK17/cyclin Y (PCTK2), MK-28 1 µM, ATP 1 µM
panel of 391 kinases [12] = molecular target: panel of 391 kinases (Homo sapiens, UniProt Q13233); conditions: MEKK1, MK-28 1 µM, ATP 1 µM
panel of 391 kinases [13] = molecular target: panel of 391 kinases (Homo sapiens, UniProt Q13237); conditions: PKG2/PRKG2, MK-28 1 µM, ATP 1 µM
panel of 391 kinases [14] = molecular target: panel of 391 kinases (Homo sapiens, UniProt Q14680); conditions: MELK, MK-28 1 µM, ATP 1 µM
panel of 391 kinases [15] = molecular target: panel of 391 kinases (Homo sapiens, UniProt Q15120); conditions: kinase PDK3/PDHK3, compound at 1 µM, single dose in duplicates, 1 µM ATP
panel of 391 kinases [16] = molecular target: panel of 391 kinases (Homo sapiens, UniProt Q52WX2); conditions: SBK1, MK-28 1 µM, ATP 1 µM
panel of 391 kinases [17] = molecular target: panel of 391 kinases (Homo sapiens, UniProt Q86YV6); conditions: MYLK4, MK-28 1 µM, ATP 1 µM
panel of 391 kinases [18] = molecular target: panel of 391 kinases (Homo sapiens, UniProt Q96PN8); conditions: TSSK3/STK22C, MK-28 1 µM, ATP 1 µM
panel of 391 kinases [19] = molecular target: panel of 391 kinases (Homo sapiens, UniProt Q9H2K8); conditions: TAOK3/JIK, MK-28 1 µM, ATP 1 µM
panel of 391 kinases [20] = molecular target: panel of 391 kinases (Homo sapiens, UniProt Q9NYL2); conditions: ZAK/MLTK, MK-28 1 µM, ATP 1 µM
panel of 391 kinases [21] = molecular target: panel of 391 kinases (Homo sapiens, UniProt Q9UIK4); conditions: DAPK2, MK-28 1 µM, ATP 1 µM
[22] = read-out: % Enzyme Activity (relative to DMSO controls)

For `CN(/N=C\c1ccc(O)c(O)c1)c1nc(-c2ccccc2)cc(-c2ccccc2)n1` [MK-28], the “% Enzyme Activity (relative to DMSO controls)” value (panel of 391 kinases [1]) was 100.96%, the remaining activity at 1 µM (panel of 391 kinases [1]; [22]) was 101% and the “% Enzyme Activity (relative to DMSO controls)” value (panel of 391 kinases [2]) was 97.92%. For the same compound, the remaining activity at 1 µM (panel of 391 kinases [2]; [22]) was 98.4%, the “% Enzyme Activity (relative to DMSO controls)” value (panel of 391 kinases [3]) was 93.30% and the remaining activity at 1 µM (panel of 391 kinases [3]; [22]) was 96.2%. The “% Enzyme Activity (relative to DMSO controls)” value (panel of 391 kinases [4]) was 96.32%, the remaining activity at 1 µM (panel of 391 kinases [4]; [22]) was 97.7% and the “% Enzyme Activity (relative to DMSO controls)” value (panel of 391 kinases [5]) was 100.53%. The remaining activity at 1 µM (panel of 391 kinases [5]; [22]) was 101%, the “% Enzyme Activity (relative to DMSO controls)” value (panel of 391 kinases [6]) was 112.80% and the remaining activity at 1 µM (panel of 391 kinases [6]; [22]) was 114%. The “% Enzyme Activity (relative to DMSO controls)” value (panel of 391 kinases [7]) was 95.73%, the remaining activity at 1 µM (panel of 391 kinases [7]; [22]) was 98.1% and the “% Enzyme Activity (relative to DMSO controls)” value (panel of 391 kinases [8]) was 93.01%. The remaining activity at 1 µM (panel of 391 kinases [8]; [22]) was 94.1%, the “% Enzyme Activity (relative to DMSO controls)” value (panel of 391 kinases [9]) was 98.77% and the remaining activity at 1 µM (panel of 391 kinases [9]; [22]) was 99.5%. The “% Enzyme Activity (relative to DMSO controls)” value (panel of 391 kinases [10]) was 105.09%, the remaining activity at 1 µM (panel of 391 kinases [10]; [22]) was 110% and the “% Enzyme Activity (relative to DMSO controls)” value (panel of 391 kinases [11]) was 104.03%. For the same compound, the remaining activity at 1 µM (panel of 391 kinases [11]; [22]) was 109%, the “% Enzyme Activity (relative to DMSO controls)” value (panel of 391 kinases [12]) was 92.45% and the remaining activity at 1 µM (panel of 391 kinases [12]; [22]) was 95.1%. The “% Enzyme Activity (relative to DMSO controls)” value (panel of 391 kinases [13]) was 85.92%, the remaining activity at 1 µM (panel of 391 kinases [13]; [22]) was 86% and the “% Enzyme Activity (relative to DMSO controls)” value (panel of 391 kinases [14]) was 84.50%. The remaining activity at 1 µM (panel of 391 kinases [14]; [22]) was 85.5%, the “% Enzyme Activity (relative to DMSO controls)” value (panel of 391 kinases [15]) was 102.25% and the remaining activity at 1 µM (panel of 391 kinases [15]; [22]) was 105%. The “% Enzyme Activity (relative to DMSO controls)” value (panel of 391 kinases [16]) was 97.75%, the remaining activity at 1 µM (panel of 391 kinases [16]; [22]) was 97.8% and the “% Enzyme Activity (relative to DMSO controls)” value (panel of 391 kinases [17]) was 92.82%. For the same compound, the remaining activity at 1 µM (panel of 391 kinases [17]; [22]) was 97.6%, the “% Enzyme Activity (relative to DMSO controls)” value (panel of 391 kinases [18]) was 86.26% and the remaining activity at 1 µM (panel of 391 kinases [18]; [22]) was 88%. The “% Enzyme Activity (relative to DMSO controls)” value (panel of 391 kinases [19]) was 100.19%, the remaining activity at 1 µM (panel of 391 kinases [19]; [22]) was 103% and the “% Enzyme Activity (relative to DMSO controls)” value (panel of 391 kinases [20]) was 104.97%. The remaining activity at 1 µM (panel of 391 kinases [20]; [22]) was 105%, the “% Enzyme Activity (relative to DMSO controls)” value (panel of 391 kinases [21]) was 98.71% and the remaining activity at 1 µM (panel of 391 kinases [21]; [22]) was 104%.
